# Measurements published in US8383352B2, “Detection of maternal alcohol exposure” (Northwestern University, priority 2009, dated 2013).
# Tests used:
# Dio3 [1] = conditions: in utero exposure to ethanol; Western blot, normalized to β-actin; pregnant Sprague-Dawley dams, last two weeks of gestation
# Gsα = conditions: in utero exposure to ethanol; Western blot, normalized to β-actin; pregnant Sprague-Dawley dams, last two weeks of gestation
# TRα = conditions: in utero exposure to ethanol; Western blot, normalized to β-actin; pregnant Sprague-Dawley dams, last two weeks of gestation
# GR = conditions: in utero exposure to ethanol; Western blot, normalized to β-actin; pregnant Sprague-Dawley dams, last two weeks of gestation
# Dio3 [2] = conditions: fetal and adult frontal cortex and hippocampus; thyroid hormone levels inversely affected
compound,measurement,setting,value
CCO [ethanol],Dio3 protein levels in placenta,Dio3 [1],up-regulation
same,Gsα protein levels in placenta,Gsα,up-regulation
same,TRα protein levels in placenta,TRα,down-regulation
same,GR protein levels in placenta,GR,down-regulation
same,Dio3 imprinting and total expression patterns,Dio3 [2],alters
